This note sets out measurements from patent US20190030053A1, “COMPOSITION FOR INCREASING EXPRESSION OF PGC-1alpha” (BENEBIOSIS CO., LTD., priority 2016, published 2019).

Assay [1] has as its system 6-OHDA induced SD rat Parkinson's disease models. Kind of assay: Behavioral ability tests (corner turn and descent, vertical grating device) in Parkinson's disease models. The class given is in vivo. Particulars: 6-OHDA SD rats, oral 0.1 mg/kg/day. The source says:
In order to investigate the changes in gene expression and behavior improvement by the treatment with SL (3′-SL & 6′-SL) compositions in Parkinson's brain disease models, 13-week-old normal SD rats and Parkinson's brain disease models were purchased from Central Lab Animal (Korea). Water was freely accessible, and a commercially available pellet feed (Dooyeul Biotech, Korea) was given for one week. At 14 weeks of age, the SD rats were divided into four groups (composed of 8 animals per group): Eight 14-week-old male SD rats (normal rats; initial body weight, average 355.6±32.3 g) treated with a normal diet were used for a control group. The 6-OHDA induced SD rat Parkinson's disease models, which were administered with 6-hydroxydopamine (6-OHDA) at 8 weeks of age and supplied at 13 weeks of age, were randomly divided into three different dietary treatment groups below (8 animals per group), and these diets were maintained from 14 weeks of age for 10 weeks (total 32 animals): • Control group: Normal rats fed with a normal diet without SL administration (8 animals) • (Parkinson's disease model) group: Parkinson's disease models fed with a normal diet without SL administration (8 animals) • (Parkinson's disease model+3′-SL) group: Parkinson's disease models treated with 3′-sialyllactose (3′-SL, Sigma) (oral administration of 0.1 mg per kg of rat weight per day) in addition to the normal diet group (8 animals) • (Parkinson's disease model+6′-SL) group: Parkinson's disease models treated with 6′-sialyllactose (6′-SL, Sigma) (oral administration of 0.1 mg per kg of rat weight per day) in addition to the normal diet group (8 animals)
In FIG. 8, the vertical axis represents the corner turn time and the descent time as a result of carrying out behavioral ability tests (corner turn and descent) using a vertical grating device on a control group, (Parkinson's disease model) group, (Parkinson's disease model+3′-SL) group, and (Parkinson's disease model+6′-SL) group. The vertical grating device was in the form of an opened box of 5 cm×55 cm×8 cm, and the frant face was formed of a wiring of 0.8 cm×0.8 cm and the other surfaces were formed of black plexiglass. The bottom was made 5 cm longer for safety. In the test, the […] were placed in an upward direction at a distance of 3 cm from the top of the device, and were allowed to acclimate to the device three times for two days before testing. The above procedure was repeated if the rat could not come down within 60 seconds. The corner turn time is the time it takes for a rat facing upwards to turn downwards, and the descent time is the time obtained by subtracting the corner turn time from the overall test time for which the rat turns at the corner and descends to the bottom.

Assay [2] concerns PGC-1α and related genes. As to the kind of experiment: Gene expression in brain and hippocampus of epilepsy/convulsion brain disease models. The note with it: Noda epileptic rats, oral 0.1 mg/kg/day, 10 weeks. The assay is classed as in vivo, rat. The text has this:
In order to investigate the gene expression changes by the treatment with SL (3′-SL & 6′-SL) compositions in epilepsy/convulsion brain disease models, 4-week-old normal SD rats and epilepsy/convulsion brain disease models (Noda epileptic rat, NER) were purchased from Central Lab Animal (Korea). Water was freely accessible, and a commercially available pellet feed (Dooyeul Biotech, Korea) was given for two weeks. At 6 weeks of age, the SD rats were divided into four groups (composed of 8 animals per group): Eight 6-week-old male SD rats (normal rats; initial body weight, average 176.3±13.3 g) treated with a normal diet were used for a control group. […]
Sialyllactose or DW was orally administered daily. […] The dietary intake and body weight change were measured every 5 days. […]
The gene expression changes by the treatment with SL (3′-SL & 6′-SL) compositions were quantitatively compared in two main organs (brain and hippocampus) associated with bran diseases. RNA was extracted by TRIzol agent (Invitrogen). cDNA was synthesized by using RNA, which has been extracted as above and quantified, and a reverse transcription system (Promega, USA). The expression patterns of PGC-1α and related genes were measured by using pre-designed primers and probes (Applied Biosystems; PGC-1α, Mm00447181_m1, […]) for the synthesized cDNA and analysis targets (Fndc5, PGC-1α, Erra, UCP1, BDNF, SOD2, and GPX1). […]

Structures are written as SMILES.

As to `CC(=O)N[C@H]1[C@H]([C@H](O)[C@H](O)CO)O[C@@](OC[C@H]2O[C@@H](O[C@H]3[C@H](O)[C@@H](O)[C@H](O)O[C@@H]3CO)[C@H](O)[C@@H](O)[C@H]2O)(C(=O)O)C[C@@H]1O` [6′-SL, α-NeuNAc-(2→6)-β-D-Gal-(1→4)-D-Glc], in assay [1], the corner turn time entry is listed as “almost similar to those in the control group” and the descent time entry was “almost similar to those in the control group”. Besides, in assay [2], the “expression levels of PGC-1α and related genes vs SL non-administration (epilepsy/convulsion brain disease model) group” value is “significant increases”.
Turning to `CC(=O)N[C@H]1[C@H]([C@H](O)[C@H](O)CO)O[C@@](O[C@H]2[C@@H](O)[C@@H](CO)O[C@@H](O[C@H]3[C@H](O)[C@@H](O)C(O)O[C@@H]3CO)[C@@H]2O)(C(=O)O)C[C@@H]1O` (stereo partly drawn) [3′-SL, α-NeuNAc-(2→3)-β-D-Gal-(1→4)-D-Glc], in assay [1], the corner turn time entry is on record as “relatively low compared with 6′-SL” and the descent time result is recorded as “relatively low compared with 6′-SL”. The “expression levels of PGC-1α and related genes vs SL non-administration (epilepsy/convulsion brain disease model) group” value in assay [2] is given as “relatively low compared with 6′-SL”.
